Experimental data published in patent publication US20240254129A1, “HETEROCYCLIC COMPOUNDS AND USES THEREOF” (Kumquat Biosciences Inc., priority 2021, published 2024).

Key:
[1] = target: GST-tagged K-Ras mutant / His-tagged hSOS1 (Homo sapiens, UniProt P01116); assay: HTRF assay, K-Ras mutant / SOS1 interaction; assay type: binding; details: compound nos. 401-703; read-out: IC50 against mutant Kras
In short: (§1)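 Inhibition of wildtype or mutant K-Ras binding to hSOS1 is measured by FRET between antibody-bound Eu donor and XL665 acceptor. Protein levels are matched to the IC50 range under study. The 665/620 nm signal after ≥10 min yields IC50.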

[2] = target: T1, wildtype Kras / hSOS1 (Homo sapiens, UniProt P01116); assay: HTRF assay, wildtype Kras / SOS1 interaction; assay type: binding; details: compound nos. 401-703; read-out: IC50 against wildtype Kras
T1 construct: made in house; host or cells: E. coli BL21 (DE3)
In short: as §1

T1 sequence (P01116 1-188 isoform P01116-2): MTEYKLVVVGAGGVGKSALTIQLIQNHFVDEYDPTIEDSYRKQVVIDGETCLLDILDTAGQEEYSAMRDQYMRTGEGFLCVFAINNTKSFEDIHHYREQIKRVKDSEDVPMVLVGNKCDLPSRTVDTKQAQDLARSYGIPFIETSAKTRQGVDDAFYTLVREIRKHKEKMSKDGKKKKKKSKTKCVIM
GST-tagged K-Ras mutant / His-tagged hSOS1, sequence (P01116 whole entry G12D, form open): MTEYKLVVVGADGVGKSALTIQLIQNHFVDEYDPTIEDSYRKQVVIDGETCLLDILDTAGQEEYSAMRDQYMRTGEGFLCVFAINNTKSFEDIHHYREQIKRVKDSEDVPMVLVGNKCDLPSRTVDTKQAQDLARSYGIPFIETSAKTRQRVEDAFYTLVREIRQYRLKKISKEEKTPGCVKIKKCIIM

| Structure (SMILES) | IC50 [1] [nM] | IC50 [2] [nM] |
| --- | --- | --- |
| Fc1c(-c2cccc3c2C2CC2C3)c(Cl)cc2c(N3CC4CCC(C3)N4)nc(OC[C@@]34CCCN3C[C@H](F)C4)nc12 (stereo partly drawn) [Compound 422, 4-(3,8-diazabicyclo[3.2.1]-octan-3-yl)-6-chloro-8-fluoro-2-(((2R,7aS)-2-fluoro-tetrahydro-1H-pyrrolizin-7a(5H)-yl)methoxy)-7-(1,1a,6,6a-tetrahydrocyclo-propa[a]inden-2-yl)quin-azoline] | > 500 | < 500 |
| Fc1c(-c2cccc3scc(Cl)c23)c(Cl)cc2c(N3CC4CCC(C3)N4)nc(OC[C@@]34CCCN3C[C@H](F)C4)nc12 [Compound 423, 4-(3,8-diazabicyclo[3.2.1]-octan-3-yl)-6-chloro-7-(3-chlorobenzo[b]thiophen-4-yl)-8-fluoro-2-(((2R,7aS)-2-fluorotetrahydro-1H-pyrrolizin-7a(5H)-yl)meth-oxy)quinazoline] | > 500 | < 500 |
| CO[C@@H]1CN(C)C[C@H]1Oc1nc(N2CC3CCC(C2)N3)c2cc(CCC#N)c(-c3ccc(F)c4sc(N)nc34)c(F)c2n1 [Compound 424, 3-(7-(2-amino-7-fluoro-benzo[d]thiazol-4-yl)-4-(3,8-diazabicyclo[3.2.1]octan-3-yl)-8-fluoro-2-(((3R,4R)-4-methoxy-1-methylpyrrolidin-3-yl)oxy)quinazolin-6-yl)-propanenitrile] | > 500 | < 500 |
| CN(C)CC1(COc2nc(N3CC4CCC(C3)N4)c3ccc(-c4ccc(F)c5sc(N)nc45)c(F)c3n2)CC1 [Compound 428, 4-(4-(3,8-diazabicyclo-[3.2.1]-octan-3-yl)-2-((1-((dimethylamino)methyl)-cyclopropyl)methoxy)-8-fluoroquinazolin-7-yl)-7-fluorobenzo[d]thiazol-2-amine] | > 500 | < 500 |
| Nc1nc2c(-c3c(Cl)cc4c(N5CCCC(N)CC5)nc(OC[C@@]56CCCN5C[C@H](F)C6)nc4c3F)ccc(F)c2s1 (stereo partly drawn) [Compound 431, 4-(4-(4-aminoazepan-1-yl)-6-chloro-8-fluoro-2-(((2R,7aS)-2-fluorotetra-hydro-1H-pyrrolizin-7a(5H)-yl)methoxy)quinazolin-7-yl)-7-fluorobenzo[d]thiazol-2-amine] | < 500 | < 500 |
| N#CC1CCCN(c2nc(OC[C@@]34CCCN3C[C@H](F)C4)nc3c(F)c(-c4ccc(F)c5sc(N)nc45)c(Cl)cc23)CC1 (stereo partly drawn) [Compound 433, 1-(7-(2-amino-7-fluoro-benzo[d]thiazol-4-yl)-6-chloro-8-fluoro-2-(((2R,7aS)-2-fluorotetra-hydro-1H-pyrrolizin-7a(5H)-yl)methoxy)quin-azolin-4-yl)azepane-4-carbonitrile] | < 500 | < 500 |
| Nc1nc2c(-c3c(Cl)cc4c(N5CCC[C@@H](N)CC5)nc(OC[C@@]56CCCN5C[C@H](F)C6)nc4c3F)ccc(F)c2s1 [Compound 434, 4-(4-((R)-4-aminoazepan-1-yl)-6-chloro-8-fluoro-2-(((2R,7aS)-2-fluorotetra-hydro-1H-pyrrolizin-7a(5H)-yl)methoxy)quinazolin-7-yl)-7-fluorobenzo[d]thiazol-2-amine] | < 500 | < 500 |
| Cc1c(N)sc2cccc(-c3ccc4c(N5CC6CCC(C5)N6)nc(OC[C@@]56CCCN5C[C@H](F)C6)nc4c3F)c12 [Compound 437, 4-(4-(3,8-diazabicyclo-[3.2.1]octan-3-yl)-8-fluoro-2-(((2R,7aS)-2-fluorotetra-hydro-1H-pyrrolizin-7a(5H)-yl)methoxy)quinazolin-7-yl)-3-methylbenzo[b]thio-phen-2-amine] | > 500 | < 500 |
| Cc1ccc2cnn(C)c2c1-c1c(Cl)cc2c(N3CC4CCC(C3)N4)nc(OCC3(CN4CCCC4)CC3)nc2c1F [Compound 438, 4-(3,8-diazabicyclo[3.2.1]-octan-3-yl)-6-chloro-7-(1,6-dimethyl-1H-indazol-7-yl)-8-fluoro-2-((1-(pyrrolidin-1-ylmethyl)cyclopropyl)meth-oxy)quinazoline] | > 500 | < 500 |
| Nc1cccc(-c2c(Cl)cc3c(N4CC5CCC(C4)N5)nc(OCC45CCCN4CCC5)nc3c2F)c1F [Compound 440, 3-(4-(3,8-diazabicyclo-[3.2.1]-octan-3-yl)-6-chloro-8-fluoro-2-((tetrahydro-1H-pyrrolizin-7a(5H)-yl)meth-oxy)quinazolin-7-yl)-2-fluoroaniline] | > 500 | < 500 |
| CN1CCC[C@H]1COc1nc(N2CCCC(N3CC(N)C3)CC2)c2cc(Cl)c(-c3cccc4sc(N)nc34)c(F)c2n1 (stereo partly drawn) [Compound 441, 4-(4-(4-(3-aminoazetidin-1-yl)azepan-1-yl)-6-chloro-8-fluoro-2-(((S)-1-methyl-pyrrolidin-2-yl)methoxy)-quinazolin-7-yl)benzo[d]-thiazol-2-amine] | > 500 | < 500 |
| CN1CCC[C@H]1COc1nc(N2CCCCC(N)C2)c2cc(Cl)c(-c3cccc4sc(N)nc34)c(F)c2n1 (stereo partly drawn) [Compound 442, 4-(4-(3-aminoazepan-1-yl)-6-chloro-8-fluoro-2-(((S)-1-methylpyrrolidin-2-yl)-methoxy)quinazolin-7-yl)-benzo[d]thiazol-2-amine] | < 500 | < 500 |

The remaining lines, values ahead:

| IC50 [1] [nM] | IC50 [2] [nM] | Structure (SMILES) |
| --- | --- | --- |
| < 500 | < 500 | CN1CCC[C@H]1COc1nc2c(c(N3CCNCC(F)(F)C3)n1)CCN(c1cc(O)cc3ccccc13)C2 [Compound 419, (S)-4-(4-(6,6-difluoro-1,4-diazepan-1-yl)-2-((1-methylpyrrolidin-2-yl)methoxy)-5,8-dihydropyrido[3,4-d]pyrimidin-7(6H)-yl)naphthalen-2-ol] |
| > 500 | < 500 | CN1CCCC1CCn1nc(N2CC3CCC(C2)N3)c2ccc(-c3ccc(F)c4sc(N)nc34)c(F)c2c1=O (stereo not shown) [Compound 420, 7-(2-amino-7-fluorobenzo-[d]thiazol-4-yl)-4-(3,8-diazabicyclo[3.2.1]octan-3-yl)-8-fluoro-2-(2-(1-methyl-pyrrolidin-2-yl)ethyl)phthal-azin-1(2H)-one] |
| > 500 | < 500 | Cc1cc2[nH]ncc2c(-c2c(Cl)cc3c(N4CC5CCC(C4)N5)nc(OC[C@@]45CCCN4C[C@H](F)C5)nc3c2F)c1Cl [Compound 425, 4-(3,8-diazabicyclo[3.2.1]-octan-3-yl)-6-chloro-7-(5-chloro-6-methyl-1H-indazol-4-yl)-8-fluoro-2-(((2R,7aS)-2-fluorotetrahydro-1H-pyrrolizin-7a(5H)-yl)meth-oxy)quinazoline] |
| > 500 | < 500 | Cc1ccc2sc(N)nc2c1-c1c(Cl)cc2c(N3CCNCC(F)(F)C3)nc(OCC34CCCN3CCC4)nc2c1O [Compound 426, 7-(2-amino-5-methylbenzo-[d]thiazol-4-yl)-6-chloro-4-(6,6-difluoro-1,4-diazepan-1-yl)-2-((tetrahydro-1H-pyrrolizin-7a(5H)-yl)meth-oxy)quinazolin-8-ol] |
| < 500 | < 500 | CN1CCC[C@H]1COc1nc(N2CCCC(C(N)=O)CC2)c2cc(Cl)c(-c3cccc4sc(N)nc34)c(F)c2n1 (stereo partly drawn) [Compound 427, 1-(7-(2-aminobenzo[d]-thiazol-4-yl)-6-chloro-8-fluoro-2-(((S)-1-methylpyr-rolidin-2-yl)methoxy)quin-azolin-4-yl)azepane-4-carboxamide] |
| > 500 | < 500 | Nc1cccc(-c2c(Cl)cc3c(N4CCCCCC4)nc(OCC45CCCN4CCC5)nc3c2F)c1F [Compound 430, 3-(4-(azepan-1-yl)-6-chloro-8-fluoro-2-((tetrahydro-1H-pyrrolizin-7a(5H)-yl)meth-oxy)quinazolin-7-yl)-2-fluoroaniline] |
| > 500 | < 500 | CN1CCC[C@H]1COc1nc2c(c(N3CCNCC(F)(F)C3)n1)CCC(c1cccc3sc(N)nc13)C2 (stereo partly drawn) [Compound 432, 4-(4-(6,6-difluoro-1,4-diazepan-1-yl)-2-(((S)-1-methylpyrrolidin-2-yl)methoxy)-5,6,7,8-tetrahydroquinazolin-7-yl)benzo[d]thiazol-2-amine] |
| < 500 | < 500 | Nc1nc2c(-c3c(Cl)cc4c(N5CCCN(S(=O)(=O)C6CC6)CC5)nc(OC[C@@]56CCCN5C[C@H](F)C6)nc4c3F)ccc(F)c2s1 [Compound 435, 4-(6-chloro-4-(4-(cyclo-propylsulfonyl)-1,4-diazepan-1-yl)-8-fluoro-2-(((2R,7aS)-2-fluorotetra-hydro-1H-pyrrolizin-7a(5H)-yl)methoxy)quinazolin-7-yl)-7-fluorobenzo[d]thiazol-2-amine] |
| < 500 | < 500 | CN1CCC[C@H]1COc1nc(N2CCCC(NS(C)(=O)=O)CC2)c2cc(Cl)c(-c3cccc4sc(N)nc34)c(F)c2n1 (stereo partly drawn) [Compound 439, N-(1-(7-(2-aminobenzo[d]-thiazol-4-yl)-6-chloro-8-fluoro-2-(((S)-1-methyl-pyrrolidin-2-yl)methoxy)-quinazolin-4-yl)azepan-4-yl)methanesulfonamide] |
| < 500 | < 500 | Nc1nc2c(-c3c(Cl)cc4c(N5CC6CCC(C5)N6)nc(OCC5(CN6CC[C@H](F)C6)CC5)nc4c3F)ccc(F)c2s1 [Compound 443, 4-(4-(3,8-diazabicyclo-[3.2.1]octan-3-yl)-6-chloro-8-fluoro-2-((1-(((S)-3-fluoropyrrolidin-1-yl)meth-yl)cyclopropyl)methoxy)-quinazolin-7-yl)-7-fluoro-benzo[d]thiazol-2-amine] |
| > 500 | < 500 | Nc1ccc(-c2ccc(O)cc2-c2c(Cl)cc3c(N4CC5CCC(C4)N5)nc(OCC45CCCN4CCC5)nc3c2F)cc1 [Compound 445, 2-(4-(3,8-diazabicyclo-[3.2.1]octan-3-yl)-6-chloro-8-fluoro-2-((tetrahydro-1H-pyrrolizin-7a(5H)-yl)meth-oxy)quinazolin-7-yl)-4′-amino-[1,1′-biphenyl]-4-ol] |
